7 compounds from patent publication US7943610B2, “Pyrazolopyridine-1,4-diamines and analogs thereof” (3M Innovative Properties Company, priority 2005, dated 2011) can be followed below.

With `CCCn1nc2c(N)nc3ccccc3c2c1N` [Example 1, 2-Propyl-2H-pyrazolo[3,4-c]quinoline-1,4-diamine], the melting point – broadly, the temperature, or range, at which the solid turns liquid – was 253 °C (dec.). Take `CCCn1nc2c(N)nc3ccccc3c2c1NCC` [Example 2, N^1-Ethyl-2-propyl-2H-pyrazolo[3,4-c]quinoline-1,4-diamine]: the melting point is 193 to 194 °C.

`CCCn1nc2c(N)nc3ccccc3c2c1NCCC1CCN(C(=O)NC(C)C)CC1` [Example 5, 4-{2-[(4-Amino-2-propyl-2H-pyrazolo[3,4-c]quinolin-1-yl)amino]ethyl}-N-isopropylpiperidine-1-carboxamide] gave a melting point of 168 to 170 °C.

As to `CCCn1nc2c(N)nc3ccccc3c2c1NCCC1CCN(C(C)=O)CC1` [Example 6, N^1-[2-(1-Acetylpiperidin-4-yl)ethyl]-2-propyl-2H-pyrazolo[3,4-c]quinoline-1,4-diamine], the melting point was in the range of 203 to 206 °C.

The compound `CCCn1nc2c(N)nc3ccccc3c2c1NC` [Example 35, N^1-Methyl-2-propyl-2H-pyrazolo[3,4-c]quinoline-1,4-diamine] gave a melting point of 200 to 201 °C. With `CCCn1nc2c(N)nc3ccccc3c2c1NC(C)C` [Example 36, N^1-Isopropyl-2-propyl-2H-pyrazolo[3,4-c]quinoline-1,4-diamine] the figure was 199 to 200 °C; with `CCCn1nc2c(N)nc3ccccc3c2c1NCc1ccccc1` [Example 37, N^1-Benzyl-2-propyl-2H-pyrazolo[3,4-c]quinoline-1,4-diamine], 160 to 161 °C.
